Data reported in patent publication US20170197935A1, “INHIBITORS OF DNA GYRASE FOR THE TREATMENT OF BACTERIAL INFECTIONS” (Vitas Pharma Research Private Limited, priority 2012, published 2017).
In brackets after ≈: the same amount, converted by molar mass. Read-outs that look alike come from different tables or passages of the source.

Columns and labels:
[1] = system: Moraxella catarrhalis (ATCC 8176); experiment: MIC by microbroth dilution, Moraxella catarrhalis ATCC 8176; type: cell-based; details: ATCC8176
Protocol: (§1) Shown below are the microbiological activities of representative compounds of Formula I of the invention. The compounds were tested by the microbroth dilution method (National committee for Clinical Laboratory Standards, 2011, […]-08) and the Minimum Inhibitory Concentration (MIC) was determined.

[2] = system: Methicillin resistant Staphylococcus aureus (ATCC 33591); experiment: MIC by microbroth dilution, MRSA ATCC 33591; type: cell-based
Protocol: (§2) Shown below are the microbiological activities of representative compounds of Formula I of the invention. The compounds were tested by the microbroth dilution method (National committee for Clinical Laboratory Standards, 2011, M07-08) and the Minimum Inhibitory Concentration (MIC) was determined.
(§3) Analysis of microbiological activity of compounds shown below are the microbiological activities of representative compounds of Formula II of the invention. The compounds were tested by the microbroth dilution method as per the reference in Example 1.

[3] = system: K. pneumoniae (ATCC 700603); experiment: MIC by microbroth dilution, K. pneumoniae ATCC 700603; type: cell-based; details: Klebsiella pneumoniae, ATCC700603, Formula I compounds
Protocol: as §2, §3

[4] = system: Staphylococcus aureus (ATCC 29213); experiment: MIC by microbroth dilution, Staphylococcus aureus ATCC 29213; type: cell-based; details: ATCC29213
Protocol: as §1

[5] = system: Enterococcus faecalis (ATCC 29212); experiment: MIC by microbroth dilution, Enterococcus faecalis ATCC 29212; type: cell-based; details: ATCC29212
Protocol: as §1

[6] = system: E. coli (ATCC 25922); experiment: MIC by microbroth dilution, E. coli ATCC 25922; type: cell-based; details: Escherichia coli
Protocol: as §2, §3

[7] = system: Streptococcus pneumoniae (ATCC 6301); experiment: MIC by microbroth dilution, Streptococcus pneumoniae ATCC 6301; type: cell-based; details: ATCC6301
Protocol: as §1

[8] = molecular target: T1, E. coli Gyrase (Escherichia coli, UniProt P0AES4+P0AES6); experiment: in vitro Gyrase supercoiling assay (Inspiralis kit); type: biochemical; details: 1 hour at 37° C., read-out: % inhibition of DNA supercoiling activity; for inhibition at 0.1 µM: 0.1 μM compound; for inhibition at 1 µM: 1 μM compound
T1 construct: purchased Inspiralis
T1 sequence (P0AES4 whole entry, one chain of several): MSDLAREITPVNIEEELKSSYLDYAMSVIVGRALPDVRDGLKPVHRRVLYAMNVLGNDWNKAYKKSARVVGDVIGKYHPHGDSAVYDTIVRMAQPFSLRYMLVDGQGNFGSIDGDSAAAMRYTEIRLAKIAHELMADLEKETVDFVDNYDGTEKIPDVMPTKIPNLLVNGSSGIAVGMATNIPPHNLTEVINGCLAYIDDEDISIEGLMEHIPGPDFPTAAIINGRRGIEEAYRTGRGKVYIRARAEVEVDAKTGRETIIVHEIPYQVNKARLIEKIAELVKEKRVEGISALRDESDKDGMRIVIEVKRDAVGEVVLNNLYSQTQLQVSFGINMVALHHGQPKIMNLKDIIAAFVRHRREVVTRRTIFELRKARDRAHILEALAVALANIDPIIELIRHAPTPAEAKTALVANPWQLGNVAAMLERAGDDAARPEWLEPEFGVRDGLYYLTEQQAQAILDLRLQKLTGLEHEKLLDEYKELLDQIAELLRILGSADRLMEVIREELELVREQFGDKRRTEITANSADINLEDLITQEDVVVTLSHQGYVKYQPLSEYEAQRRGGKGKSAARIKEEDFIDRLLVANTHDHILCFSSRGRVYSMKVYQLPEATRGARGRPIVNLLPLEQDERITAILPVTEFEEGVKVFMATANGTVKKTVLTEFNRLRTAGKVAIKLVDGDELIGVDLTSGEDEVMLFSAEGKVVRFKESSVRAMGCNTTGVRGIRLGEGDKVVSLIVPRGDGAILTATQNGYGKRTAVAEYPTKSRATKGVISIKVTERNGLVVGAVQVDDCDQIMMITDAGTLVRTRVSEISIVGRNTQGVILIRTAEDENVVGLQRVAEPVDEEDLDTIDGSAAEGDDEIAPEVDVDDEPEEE
Protocol: To test for target specificity, the activity of compounds was evaluated in an in vitro Gyrase assay using recombinant Gyrase protein as per the instructions of the assay kit (Inspiralis). The assay measures the ability of E. coli Gyrase to convert relaxed plasmid DNA into the supercoiled form. The enzyme is incubated with the substrate (relaxed DNA) in the presence and absence of compounds for 1 hour at 37° C. and the DNA is run on a gel at low voltage for several hours. The gel is then stained with Ethidium bromide and DNA in the different forms is quantified using DNA imaging and quantification software (Image Lab). The activity of the enzyme is proportional to the amount of supercoiled form detected.

[9] = system: E. faecalis ATCC 51299; experiment: MIC by microbroth dilution, E. faecalis ATCC 51299; type: cell-based; details: Enterococcus faecalis, ATCC51299, Formula II compounds, read-out: Minimum Inhibitory Concentration (MIC) E. faecalis ATCC 51299
Protocol: as §2, §3

[10] = ATCC33591, Formula I compounds, read-out: MIC Methicillin resistant Staphylococcus aureus (ATCC 33591)
[11] = ATCC25922, Formula I compounds, read-out: MIC E. coli (ATCC 25922)
[12] = Formula II compounds, read-out: Minimum Inhibitory Concentration (MIC) MRSA ATCC 33591
[13] = ATCC25922, Formula II compounds, read-out: Minimum Inhibitory Concentration (MIC) E. coli ATCC 25922

Row | Compound | MIC [1] | MIC [2, 10] | MIC [3] | MIC [4] | MIC [5] | MIC [6, 11] | MIC [7] | inhibition at 0.1 µM [8] | inhibition at 1 µM [8] | MIC [2, 12] | MIC [9] | MIC [6, 13]
1 | COc1ccc2ncc(C#N)c(N3CC(N4CCC(NCc5ccc6c(c5)OCCO6)CC4)C3)c2c1 [VT-03-00032] | 8 µg/mL (≈ 16.5 µM) | 4 µg/mL (≈ 8.24 µM) | > 32 µg/mL | 2 µg/mL (≈ 4.12 µM) | 8 µg/mL (≈ 16.5 µM) | > 32 µg/mL | 4 µg/mL (≈ 8.24 µM) | – | – | – | – | –
2 | COc1ccc2ncc(C#N)c(CCN3CCC(NCc4ccc([N+](=O)[O-])cc4)CC3)c2c1 [VT-03-00045] | 2 µg/mL (≈ 4.49 µM) | 0.12 µg/mL (≈ 0.269 µM) | – | 0.06 µg/mL (≈ 0.135 µM) | 4 µg/mL (≈ 8.98 µM) | 32 µg/mL (≈ 71.8 µM) | 0.5 µg/mL (≈ 1.12 µM) | 96.5% | 96.5% | – | – | –
3 | COc1ccc2ncc(C#N)c(CCN3CCC(NCc4ccc(F)c([N+](=O)[O-])c4)CC3)c2c1 [VT-03-00048] | 1 µg/mL (≈ 2.16 µM) | 0.5 µg/mL (≈ 1.08 µM) | > 32 µg/mL | 0.12 µg/mL (≈ 0.259 µM) | 4 µg/mL (≈ 8.63 µM) | 8 µg/mL (≈ 17.3 µM) | 0.5 µg/mL (≈ 1.08 µM) | 97.5% | 97.3% | – | – | –
4 | COc1ccc2ncc(C#N)c(CCN3CCC(NCc4cccc([N+](=O)[O-])c4)CC3)c2c1 [VT-03-00049] | 8 µg/mL (≈ 18 µM) | 0.5 µg/mL (≈ 1.12 µM) | > 32 µg/mL | 0.12 µg/mL (≈ 0.269 µM) | 2 µg/mL (≈ 4.49 µM) | 32 µg/mL (≈ 71.8 µM) | 0.5 µg/mL (≈ 1.12 µM) | – | – | – | – | –
5 | COc1ccc2ncc(C#N)c(CCN3CCC(NCc4cc([N+](=O)[O-])ccc4F)CC3)c2c1 [VT-03-00050] | 4 µg/mL (≈ 8.63 µM) | 0.5 µg/mL (≈ 1.08 µM) | > 16 µg/mL | 0.25 µg/mL (≈ 0.539 µM) | 4 µg/mL (≈ 8.63 µM) | 16 µg/mL (≈ 34.5 µM) | 4 µg/mL (≈ 8.63 µM) | – | – | – | – | –
6 | COc1ccc2ncc(C#N)c(CCN3CCC(NCc4ccc([N+](=O)[O-])o4)CC3)c2c1 [VT-03-00051] | 2 µg/mL (≈ 4.59 µM) | 4 µg/mL (≈ 9.19 µM) | > 16 µg/mL | 2 µg/mL (≈ 4.59 µM) | 4 µg/mL (≈ 9.19 µM) | > 32 µg/mL | > 4 µg/mL | – | – | – | – | –
7 | COc1ccc2ncc(C#N)c(CCN3CCC(NCc4ccc([N+](=O)[O-])c(F)c4)CC3)c2c1 [VT-03-00054] | 1 µg/mL (≈ 2.16 µM) | 0.12 µg/mL (≈ 0.259 µM) | 32 µg/mL (≈ 69 µM) | 0.03 µg/mL (≈ 0.0647 µM) | 2 µg/mL (≈ 4.31 µM) | 8 µg/mL (≈ 17.3 µM) | 0.5 µg/mL (≈ 1.08 µM) | – | – | – | – | –
8 | COc1ccc2ncc(C#N)c(CCN3CCC(NC(=O)c4ccc([N+](=O)[O-])c(F)c4)CC3)c2c1 [VT-03-00055] | > 32 µg/mL | 4 µg/mL (≈ 8.38 µM) | > 32 µg/mL | 1 µg/mL (≈ 2.09 µM) | 0.25 µg/mL (≈ 0.524 µM) | > 32 µg/mL | 0.03 µg/mL (≈ 0.0628 µM) | 52.7% | 71% | – | – | –
9 | COc1ccc2ncc(=O)n(CCN3CCC(NCc4ccc(F)c([N+](=O)[O-])c4)CC3)c2c1 [VT-03-00056] | 1 µg/mL (≈ 2.2 µM) | 0.5 µg/mL (≈ 1.1 µM) | > 32 µg/mL | 0.25 µg/mL (≈ 0.549 µM) | 8 µg/mL (≈ 17.6 µM) | 4 µg/mL (≈ 8.78 µM) | 0.25 µg/mL (≈ 0.549 µM) | – | – | – | – | –
10 | COc1ccc2ncc(C#N)c(CCN3CCC(NCc4cc([N+](=O)[O-])ccc4O)CC3)c2c1 [VT-03-00059] | 8 µg/mL (≈ 17.3 µM) | 1 µg/mL (≈ 2.17 µM) | > 32 µg/mL | 0.25 µg/mL (≈ 0.542 µM) | 8 µg/mL (≈ 17.3 µM) | > 32 µg/mL | 2 µg/mL (≈ 4.33 µM) | – | – | – | – | –
11 | COc1ccc2ncc(OCCN3CCC(NCc4ccc(C)c([N+](=O)[O-])c4)CC3)nc2c1 [VT-03-00062a] | 2 µg/mL (≈ 4.43 µM) | 1 µg/mL (≈ 2.21 µM) | > 32 µg/mL | 0.5 µg/mL (≈ 1.11 µM) | 4 µg/mL (≈ 8.86 µM) | 4 µg/mL (≈ 8.86 µM) | 0.5 µg/mL (≈ 1.11 µM) | – | – | – | – | –
12 | COc1ccc2ncc(C#N)c(CCN3CCC(NCc4ccc(N(C)C)c([N+](=O)[O-])c4)CC3)c2c1 [VT-03-00064] | 0.25 µg/mL (≈ 0.512 µM) | 0.25 µg/mL (≈ 0.512 µM) | > 32 µg/mL | 0.12 µg/mL (≈ 0.246 µM) | 2 µg/mL (≈ 4.09 µM) | 4 µg/mL (≈ 8.19 µM) | 0.12 µg/mL (≈ 0.246 µM) | 89.3% | 98.1% | – | – | –
13 | Cc1ccc(CNC2CCN(CCn3c(=O)ccc4ccc(C#N)cc43)CC2)cc1[N+](=O)[O-] [VT-03-00065] | > 32 µg/mL | 1 µg/mL (≈ 2.24 µM) | > 32 µg/mL | 0.25 µg/mL (≈ 0.561 µM) | > 32 µg/mL | > 32 µg/mL | 4 µg/mL (≈ 8.98 µM) | – | – | – | – | –
14 | COc1ccc2ncc(=O)n(CCN3CCC(NCc4ccc(Br)c([N+](=O)[O-])c4)CC3)c2c1 [VT-03-00066] | 4 µg/mL (≈ 7.75 µM) | 1 µg/mL (≈ 1.94 µM) | > 32 µg/mL | 0.5 µg/mL (≈ 0.968 µM) | 4 µg/mL (≈ 7.75 µM) | 16 µg/mL (≈ 31 µM) | 1 µg/mL (≈ 1.94 µM) | 55.9% | 89.9% | – | – | –
15 | COc1ccc2ncc(C#N)c(CCN3CCC(NCc4cc(C)cc([N+](=O)[O-])c4C)CC3)c2c1 [VT-03-00075] | 0.5 µg/mL (≈ 1.06 µM) | 0.12 µg/mL (≈ 0.253 µM) | > 16 µg/mL | 0.12 µg/mL (≈ 0.253 µM) | 0.5 µg/mL (≈ 1.06 µM) | 4 µg/mL (≈ 8.45 µM) | 0.06 µg/mL (≈ 0.127 µM) | – | – | – | – | –
16 | CCc1ccc(CNC2CCN(CCc3c(C#N)cnc4ccc(OC)cc34)CC2)cc1[N+](=O)[O-] [VT-03-00076] | 0.25 µg/mL (≈ 0.528 µM) | 0.03 µg/mL (≈ 0.0633 µM) | > 16 µg/mL | 0.015 µg/mL (≈ 0.0317 µM) | 0.25 µg/mL (≈ 0.528 µM) | 2 µg/mL (≈ 4.22 µM) | 0.03 µg/mL (≈ 0.0633 µM) | – | – | – | – | –
17 | COc1ccc2ncc(C#N)c(CCN3CCC(NCc4cc5c(c([N+](=O)[O-])c4)OCO5)CC3)c2c1 [VT-03-00077] | 0.25 µg/mL (≈ 0.511 µM) | 0.12 µg/mL (≈ 0.245 µM) | > 16 µg/mL | 0.06 µg/mL (≈ 0.123 µM) | 1 µg/mL (≈ 2.04 µM) | 2 µg/mL (≈ 4.09 µM) | 0.12 µg/mL (≈ 0.245 µM) | 38.8% | 88.5% | – | – | –
18 | COc1ccc2ncc(C#N)c(CCN3CCC(NCc4cc([N+](=O)[O-])ccn4)CC3)c2c1 [VT-03-00079] | 4 µg/mL (≈ 8.96 µM) | 2 µg/mL (≈ 4.48 µM) | – | 2 µg/mL (≈ 4.48 µM) | 32 µg/mL (≈ 71.7 µM) | 32 µg/mL (≈ 71.7 µM) | 2 µg/mL (≈ 4.48 µM) | 16.7% | 87.6% | – | – | –
19 | Cc1ccc(CNC2CCN(CCN3C(=O)CNc4ccc(Cl)nc43)CC2)cc1F [VT-03-00107] | – | – | – | – | – | – | – | – | – | 0.06 µg/mL (≈ 0.139 µM) | 0.5 µg/mL (≈ 1.16 µM) | 1 µg/mL (≈ 2.32 µM)
20 | CNC(=O)c1ccc2ncc(=O)n(CCN3CCC(NCc4ccc(C)c([N+](=O)[O-])c4)CC3)c2c1 [VT-03-00108] | – | – | – | – | – | – | – | – | – | 0.25 µg/mL (≈ 0.522 µM) | 2 µg/mL (≈ 4.18 µM) | 8 µg/mL (≈ 16.7 µM)
21 | CNC(=O)c1ccc2ncc(=O)n(CCN3CCC(NCc4ccc(C)c(F)c4)CC3)c2c1 [VT-03-00109] | – | – | – | – | – | – | – | – | – | 1 µg/mL (≈ 2.21 µM) | 2 µg/mL (≈ 4.43 µM) | 16 µg/mL (≈ 35.4 µM)
